In patent publication US20100062063A1, “LIGHT-STABLE SOLID PHARMACEUTICAL COMPOSITION OF RAMOSETRON” (ASTELLAS PHARMA INC., priority 2006, published 2010):
“Also recorded” adds a separate entry of the source.

Experiments:
[1] = Area under the light absorbance spectrum curve of a 0.001 w/v % aqueous solution (UV meter, trapezoidal formula); type: physicochemical; conditions: 0.001 w/v % aqueous solution of the added compound
Description: FIG. 1 is a graph showing the relationship between the absorbance wavelength and the absorbance of various compounds. The measurement method is as follows. A 0.001 w/v % aqueous solution of a drug and various stabilizers was prepared, and the absorbances at each absorbance wavelength in a range of 200 nm to 600 nm were measured. […] Condition: scan speed: medium speed, sampling pitch: 1.0, length of light path: 10 mm, width of a slit: 2.0 nm.
FIG. 2 is a graph showing a method for calculating the area under the spectrum curve of various compounds. The area under the spectrum curve was calculated by a trapezoidal formula. That is, for the spectrum of each of the compounds, the trapezoidal area was calculated at every sampling pitch (1.0 nm), and a desired area was measured from the total value of the trapezoidal areas in the wavelength range.

[2] = Stability under irradiation with a white fluorescent lamp of 1000 Lux, assay value by liquid chromatography; conditions: compound added to ramosetron hydrochloride preparation
Description: The quantitative determination was carried out by liquid chromatography.

[3] = Stability under sealing of an HDPE plastic bottle at 40° C. and 75% RH, assay value by liquid chromatography; type: physicochemical; conditions: compound added to ramosetron or its salt

Row | Compound | area under the spectrum curve at the wavelength range of 220 nm to 240 nm [1] | area under the spectrum curve at the wavelength range of 280 nm to 300 nm [1] | stabilizing effect of the added compound on ramosetron hydrochloride against light (in words) [2] | stabilizing effect of the added compound on ramosetron under a high-temperature and high-humidity condition (in words) [3]
1 | O=C([O-])c1ccccc1-c1c2cc(I)c(=O)c(I)c-2oc2c(I)c([O-])c(I)cc12.[Na+].[Na+] [Food Red No. 3, reference compound] | 4.2 | 1.8 | – | –
2 | methyl hesperidin | 5.4 | 3.7 | a remarkable stabilizing effect of ramosetron hydrochloride against the irradiation with light is found; also recorded: exhibited a remarkable stabilizing effect against light | a remarkable stabilizing effect under a high-temperature and high-humidity condition
3 | αG hesperidin | 6.0 | 5.0 | a remarkable stabilizing effect of ramosetron hydrochloride against the irradiation with light is found; also recorded: exhibited a remarkable stabilizing effect against light | a remarkable stabilizing effect under a high-temperature and high-humidity condition

Now from value to compound, other results behind:

Row | area under the spectrum curve at the wavelength range of 220 nm to 240 nm [1] | area under the spectrum curve at the wavelength range of 280 nm to 300 nm [1] | Compound | stabilizing effect of the added compound on ramosetron hydrochloride against light (in words) [2] | stabilizing effect of the added compound on ramosetron under a high-temperature and high-humidity condition (in words) [3]
4 | 10.0 | 3.1 | O=S(=O)([O-])c1cc(S(=O)(=O)[O-])c2c(N=Nc3ccc(S(=O)(=O)[O-])c4ccccc34)c(O)ccc2c1.[Na+].[Na+].[Na+] [Food Red No. 102] | – | –
5 | 0.1 | 0.1 | OC[C@@H](O)[C@@H](O)[C@H](O)[C@H](O)CO [mannitol, reference compound] | did not exhibit a remarkable stabilizing effect against light | –
6 | 8.4 | 19.9 | Cc1cc(S(=O)(=O)[O-])c2c(C)ccc(C(C)C)cc1-2.[Na+] [sodium azulene sulfonate] | a remarkable stabilizing effect of ramosetron hydrochloride against the irradiation with light is found; also recorded: exhibited a remarkable stabilizing effect against light | –
